# Laboratory results from patent publication US7632783B2 (priority 2004, dated 2009).
# Assays:
# [1] = tested on: rice blast (Pyricularia oryzae); format: in vivo; details: potted rice (variety Karakaze), spraying liquid 300 ppm after spore inoculation, observed 7 days after inoculation, levels 0 to 3
# [2] = tested on: gray mold (Botrytis cinerea); test: Tomato gray mold control test (preventive effects); format: in vivo; details: potted tomato (giant Fukuju variety), spraying liquid 300 ppm before spore inoculation, investigated 2 days after inoculation, levels 0 to 3
# Protocol: Bulk drug was dissolved in a mixed solution of dimethylsulfoxide and methanol (volume ratio: 7/3), and spraying liquids containing 300 ppm of compounds of the present invention were uniformly sprayed onto potted test plants (tomato: giant Fukuju variety) in the second to third leaf stage. […], a suspension of pathogen spores were inoculated by spraying onto the pots in an inoculation room at a room temperature of 20 to 23° C. to promote the onset of disease. The degree of disease onset was investigated 2 days after inoculation. The test was carried out in duplicate.
# Furthermore, the degree of disease onset was evaluated to one of four levels from 0 to 3 according to the criteria below by macroscopically observing the degree of disease onset of the test plants.
# 1: Degree of disease onset less than 40% of the untreated area
# 2: Degree of disease onset 40% to less than 80% of the untreated area
# 3: Degree of disease onset 80% or more
Compound,degree of disease onset [1],degree of disease onset [2],melting point
"CC1(C)Cc2c(F)cccc2C(c2cnc3ccccc3c2)N1 (stereo not drawn) [Example 110, 3-(5-fluoro-3,3-dimethyl-1,2,3,4-tetrahydroisoquinoline-1-yl)quinoline]",0,0,142 to 144 °C
"CCOC1(C)c2c(F)cccc2C(c2cnc3ccccc3c2)=NC1(C)C (stereo not drawn) [Example 184, 3-(4-ethoxy-5-fluoro-3,3,4-trimethyl-3,4-dihydroisoquinolin-1-yl)quinoline]",0,,118 to 119 °C
"CC1(C)Cc2ccccc2C(c2cnc3ccccc3c2)N1 (stereo not drawn) [Example 4, 3-(3,3-dimethyl-1,2,3,4-tetrahydroisoquinolin-1-yl)quinoline]",0,,117 to 122 °C
CC1(C)NC(c2cnc3ccccc3c2)c2cccc(F)c2C1=O (stereo not drawn),,,228 to 229 °C
"CC1(C)Cc2c(Cl)cccc2C(c2cnc3ccccc3c2)N1 (stereo not drawn) [Example 112, 3-(5-chloro-3,3-dimethyl-1,2,3,4-tetrahydroisoquinoline-1-yl)quinoline]",0,0,129 to 131 °C
CC1(C)N=C(c2cnc3ccccc3c2)c2cccc(F)c2C1O (stereo not drawn),,,225 to 226 °C
"CC1c2c(F)cccc2C(c2cnc3ccccc3c2)NC1(C)C (stereo not drawn) [Example 124, 3-(5-fluoro-3,3,4-trimethyl-1,2,3,4-tetrahydroisoquinoline-1-yl)quinoline]",0,,133 to 134 °C
CC1(C)N=C(c2cnc3ccccc3c2)c2cc(Br)ccc2C1(F)F,,,123 to 125 °C
CN1C(c2cnc3ccccc3c2)c2ccccc2CC1(C)C (stereo not drawn),,,116 to 118 °C
CC1(C)Cc2c(F)cccc2C(C)(c2cnc3ccccc3c2)N1 (stereo not drawn),,,148 to 150 °C
"CC1(CCl)Cc2ccccc2C(c2cnc3ccccc3c2)=N1 (stereo not drawn) [Example 66, 3-(3-chloromethyl-3-methyl-3,4-dihydroisoquinolin-1-yl)quinoline]",0,0,
CC1(C)Cc2c(Cl)cccc2C(C)(c2cnc3ccccc3c2)N1 (stereo not drawn),,,142 to 144 °C
"CCC1(C)Cc2c(F)cccc2C(c2cnc3ccccc3c2)=N1 (stereo not drawn) [Example 56, 3-(3-ethyl-5-fluoro-3-methyl-3,4-dihydroisoquinolin-1-yl)quinoline]",0,0,
"CCC1(OC)c2c(F)cccc2C(c2cnc3ccccc3c2)=NC1(C)C (stereo not drawn) [Example 185, 3-(4-ethyl-5-fluoro-4-methoxy-3,3-dimethyl-3,4-dihydroisoquinolin-1-yl)quinoline]",0,,145 to 147 °C
"CC1(C)Cc2c(F)cccc2C(c2cnc3ccccc3c2)=N1.CS(=O)(=O)O [Example 107, 3-(5-fluoro-3,3-dimethyl-3,4-dihydroisoquinolin-1-yl)quinoline methanesulfonate]",0,0,
"CC1(C(F)(F)F)Cc2ccccc2C(c2cnc3ccccc3c2)=N1 (stereo not drawn) [Example 68, 3-(3-trifluoromethyl-3-methyl-3,4-dihydroisoquinolin-1-yl)quinoline]",0,0,

Compound,degree of disease onset [1],degree of disease onset [2],melting point
"CC1(C)Cc2c(F)cccc2C(c2cnc3ccccc3c2)=N1.Cl [Example 103, 3-(5-fluoro-3,3-dimethyl-3,4-dihydroisoquinolin-1-yl)quinoline hydrochloride]",0,0,
"CC1(C)Cc2c(C#N)cccc2C(c2cnc3ccccc3c2)=N1 [Example 51, 3-(5-cyano-3,3-dimethyl-3,4-dihydroisoquinolin-1-yl)quinoline]",0,0,
CC1(C)N=C(c2cnc3ccccc3c2)c2ccccc2C1=O,,,137 °C
"CCCC1(C)Cc2c(F)cccc2C(c2cnc3ccccc3c2)=N1 (stereo not drawn) [Example 58, 3-(5-fluoro-3-methyl-3-propyl-3,4-dihydroisoquinolin-1-yl)quinoline]",0,0,
"CC1(C)N=C(c2cnc3ccccc3c2)c2cccc(F)c2C1(F)F [Example 178, 3-(4,4,5-trifluoro-3,3-dimethyl-3,4-dihydroisoquinolin-1-yl)quinoline]",0,0,
"CC1(C)c2c(F)cccc2C2(c3cnc4ccccc4c3)ON2C1(C)C (stereo not drawn) [Example 193, 5-fluoro-3,3,4,4-tetramethyl-8b-quinolin-3-yl-4,8b-dihydro-3H-oxazileno[3,2-a]isoquinoline]",0,0,
CC1(C)Cc2c(C(N)=O)cccc2C(c2cnc3ccccc3c2)=N1,,,236 to 240 °C
"CC1(C)N=C(c2cnc3ccccc3c2)c2ccccc2C1(F)F [Example 177, 3-(4,4-difluoro-3,3-dimethyl-3,4-dihydroisoquinolin-1-yl)quinoline]",0,0,
"CC1(C)c2cc(F)ccc2C2(c3cnc4ccccc4c3)ON2C1(C)C (stereo not drawn) [Example 199, 6-fluoro-3,3,4,4-tetramethyl-8b-quinolin-3-yl-4,8b-dihydro-3H-oxazileno[3,2-a]isoquinoline]",0,0,
"CC1(C)N=C(c2cnc3c(F)cccc3c2)c2cccc(F)c2C1(C)C [Example 164, 3-(5-fluoro-3,3,4,4-tetramethyl-3,4-dihydroisoquinolin-1-yl)-8-fluoroquinoline]",0,0,
CC1(C)Cc2c(cccc2-c2cnco2)C(c2cnc3ccccc3c2)=N1,,,175 to 179 °C
"CC1(C)N=C(c2cnc3ccc(F)cc3c2)c2cccc(F)c2C1(C)C [Example 163, 3-(5-fluoro-3,3,4,4-tetramethyl-3,4-dihydroisoquinolin-1-yl)-6-fluoroquinoline]",0,0,
"CC1(C)Cc2c(F)cccc2C(c2cnc3ccccc3c2)=N1.O=C(O)/C=C/C(=O)O [Example 109, 3-(5-fluoro-3,3-dimethyl-3,4-dihydroisoquinolin-1-yl)quinoline fumarate]",0,0,
"CC1(C)N2OC2(c2cnc3ccccc3c2)c2cccc(F)c2C1(F)F (stereo not drawn) [Example 203, 4,4,5-trifluoro-3,3-dimethyl-8b-quinolin-3-yl-4,8b-dihydro-3H-oxazileno[3,2-a]isoquinoline]",0,0,
"CC1(C)c2ccccc2C(c2cnc3ccccc3c2)=[N+]([O-])C1(C)C [Example 207, 3-(3,3,4,4-tetramethyl-2-oxide-3,4-dihydroisoquinolin-1-yl)quinoline]",0,0,
"CC1(C)NC(c2cnc3ccccc3c2)c2cccc(F)c2C1(C)C (stereo not drawn) [Example 125, 3-(5-fluoro-3,3,4,4-tetramethyl-1,2,3,4-tetrahydroisoquinoline-1-yl)quinoline]",0,,179 to 181 °C
